# From ChEMBL document CHEMBL1131971, “Identification and initial structure-activity relationships of a novel non-peptide quinolone GnRH receptor antagonist” (Bioorg Med Chem Lett, 1999)
# Tests used:
# [1] = molecular target: T1, Gonadotropin-releasing hormone receptor (Rattus norvegicus, UniProt P30969); assay: Inhibition of [125I]buserelin to GnRH receptor in rat pituitary membranes.; format: cell membranes, Membrane
# T1 sequence (P30969 whole entry): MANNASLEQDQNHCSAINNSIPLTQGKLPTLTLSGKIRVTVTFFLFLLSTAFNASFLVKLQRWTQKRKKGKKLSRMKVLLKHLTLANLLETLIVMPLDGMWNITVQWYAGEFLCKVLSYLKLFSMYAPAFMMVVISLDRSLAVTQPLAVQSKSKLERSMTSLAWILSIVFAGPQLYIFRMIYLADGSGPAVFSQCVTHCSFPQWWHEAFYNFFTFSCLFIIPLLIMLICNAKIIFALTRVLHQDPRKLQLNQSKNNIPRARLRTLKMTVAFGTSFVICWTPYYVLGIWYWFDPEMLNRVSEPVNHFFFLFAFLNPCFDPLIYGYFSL
# [2] = molecular target: T2, Gonadotropin-releasing hormone receptor (Rattus norvegicus) (UniProt P30969); assay: Inhibitory activity at GnRH receptor in rat pituitary membranes.; format: cell membranes; design: concentration or dose not given beside the values; details: concentration not given here
# T2 sequence (whole entry): T1 sequence (P30969 whole entry)
Compound,IC50 [1] [nM],inhibition [2] [%]
Oc1nc2cc(Cl)ccc2c(OCc2ccccn2)c1-c1ccccc1,10000,–
Cc1cc(C)cc(-c2c(O)nc3cc(Cl)ccc3c2OCC2CCN(C)C2)c1 (stereo not drawn),500,–
NCCCOc1c(-c2ccccc2)c(O)nc2cc(Cl)ccc12,–,< 50
COc1ccc2nc(O)c(-c3cc(C)cc(C)c3)c(OCC3CCCN(C)C3)c2c1 (stereo not drawn),–,< 50
Cc1cc(C)cc(-c2c(OCC3CCCN(C)C3)c3ccc(Cl)cc3[nH]c2=O)c1 (stereo not drawn),300,–
Cc1cc(C)cc(-c2c(OCC3CCCN(C)C3)c3ccc(C)cc3[nH]c2=O)c1 (stereo not drawn),3900,–
CN1CCCCC(Oc2c(-c3ccccc3)c(O)nc3cc(Cl)ccc23)C1 (stereo not drawn),7000,–
Cc1cc(C)cc(-c2c(O)nc3cc(Cl)ccc3c2OC2CCCN(C)CC2)c1 (stereo not drawn),300,–
Cc1cc(C)cc(-c2c(OCCC3CCCCN3C)c3ccc(Cl)cc3[nH]c2=O)c1 (stereo not drawn),200,–
Cc1cc(C)cc(-c2c(OCCC3CCCCN3C)c3ccc(Br)cc3[nH]c2=O)c1 (stereo not drawn),150,–
Cc1cc(C)cc(-c2c(O)nc3c(Cl)cccc3c2OCC2CCCN(C)C2)c1 (stereo not drawn),–,< 50
Cc1cc(C)cc(-c2c(OCCC3CCCCN3C)c3ccc(C(F)(F)F)cc3[nH]c2=O)c1 (stereo not drawn),100,–
Cc1cc(C)cc(-c2c(OC3CCN(C)CC3)c3ccc(Cl)cc3[nH]c2=O)c1,1300,–
Cc1cc(C)cc(-c2c(O)nc3cc(F)ccc3c2OCC2CCCN(C)C2)c1 (stereo not drawn),–,< 50
Oc1nc2cc(Cl)ccc2c(OCc2ccccc2)c1-c1ccccc1,–,< 50
Oc1nc2cc(Cl)ccc2c(OCc2ccc3ccccc3n2)c1-c1ccccc1,–,< 50
Cc1cc(C)cc(-c2c(O)nc3cc(Cl)ccc3c2OCC2CCNCC2)c1,–,< 50
Cc1cc(C)cc(-c2c(O)nc3cc(Cl)ccc3c2OCC2CN(C)CCO2)c1 (stereo not drawn),1400,–
CN(C)CCCOc1c(-c2ccccc2)c(O)nc2cc(Cl)ccc12,9000,–

Compound,IC50 [1] [nM],inhibition [2] [%]
Oc1nc2cc(Cl)ccc2c(OCc2cccnc2)c1-c1ccccc1,–,< 50
Cc1cc(C)cc(-c2c(OCCC3CCCCN3C)c3cc([N+](=O)[O-])c(Cl)cc3[nH]c2=O)c1 (stereo not drawn),32,–
CN(C)CCOc1c(-c2ccccc2)c(O)nc2cc(Cl)ccc12,–,< 50
Cc1cc(C)cc(-c2c(O)nc3cc(Cl)ccc3c2OCCC2CCCN2C)c1 (stereo not drawn),200,–
Cc1cc(C)cc(-c2c(OCCCN3CCCCC3)c3ccc(Cl)cc3[nH]c2=O)c1,7500,–
Cc1cc(C)cc(-c2c(O)nc3cc(Cl)ccc3c2OCC2CCCCN(C)C2)c1 (stereo not drawn),1300,–
COC(=O)c1ccc2c(OCC3CCCN(C)C3)c(-c3cc(C)cc(C)c3)c(O)nc2c1 (stereo not drawn),–,< 50
Cc1cc(C)cc(-c2c(O)nc3cccc(Cl)c3c2OCC2CCCN(C)C2)c1 (stereo not drawn),–,< 50
Cc1cc(C)cc(-c2c(O)nc3ccc(Cl)cc3c2OCC2CCCN(C)C2)c1 (stereo not drawn),–,< 50
O=C1c2ccccc2C(=O)N1CCCOc1c(-c2ccccc2)c(O)nc2cc(Cl)ccc12,–,< 50
Cc1cc(C)cc(-c2c(O)nc3ccc([N+](=O)[O-])cc3c2OCC2CCCN(C)C2)c1 (stereo not drawn),–,< 50
CN1CCCC(COc2c(-c3ccccc3)c(O)nc3cc(Cl)ccc23)C1 (stereo not drawn),4000,–
Cc1cc(C)cc(-c2c(O)nc3cc(Cl)ccc3c2OCC(C)CN(C)C)c1 (stereo not drawn),6300,–
Oc1nc2cc(Cl)ccc2c(OCc2ccncc2)c1-c1ccccc1,–,< 50
Cc1cc(C)cc(-c2c(O)nc3ccc(C)cc3c2OCC2CCCN(C)C2)c1 (stereo not drawn),–,< 50
Cc1cc(C)cc(-c2c(O)nc3cc([N+](=O)[O-])ccc3c2OCC2CCCN(C)C2)c1 (stereo not drawn),1400,–
Cc1cc(C)cc(-c2c(O)nc3cc(Cl)ccc3c2OCC2CCCNC2)c1 (stereo not drawn),500,–
CN1CCCCC1COc1c(-c2ccccc2)c(=O)[nH]c2cc(Cl)ccc12 (stereo not drawn),9000,–
Cc1cc(C)cc(-c2c(O)nc3cc(Cl)ccc3c2OCC2CCCCN2C)c1 (stereo not drawn),4000,–
